Like-named read-outs stand apart in the source and are kept apart here.
Assays:
SERT = target: T1, SERT (Homo sapiens, UniProt P31645); test: SERT competitive binding assay, [3H]-paroxetine, membranes from HEK-293 clonal cell line overexpressing SERT
T1 construct: purchased Perkin-Elmer (Boston, MA, USA) RBHSTM400UA; host or cells: HEK-293 clonal cell line
Experimental: To determine the binding of all compounds at SERT, competitive binding assays were performed according to previously reported procedures with some modifications. […] Control curve was performed with fluoxetine in the same experimental conditions. Non-specific binding was determined with 10 µM fluoxetine.
The IC50 and Ki values correspond to the results of three independent experiments, each in triplicate. All data are expressed as the mean ± SEM.

D2 receptor = target: T2, D2 receptor (Homo sapiens, UniProt P14416); test: D2 receptor competitive binding assay, [3H]-methylspiperone, membranes from CHO-K1 clonal cell line overexpressing D2 receptor; conditions: for Ki: 0.5 nM [3H]-methylspiperone, 2 h at 27 °C, mean ± SEM of three experiments, each in triplicate
T2 construct: purchased Perkin-Elmer (Boston, MA, USA) RBHD2CM400UA; host or cells: CHO-K1 clonal cell line
Experimental: To determine the binding of all compounds at D2 receptor, competitive binding assays were performed according to provider indications with some modifications. […] Radioactivity was counted as described before.

rat MAO-A = target: T3, rat MAO-A (Rattus norvegicus, UniProt P21396); test: MAO-A inhibition, crude rat brain mitochondrial suspension, serotonin substrate, HPLC-ED; assay type: biochemical; conditions: 100 µM compound; serotonin 100 µM as substrate
T3 construct: using a crude rat brain mitochondrial suspension as a source of enzyme; from tissue; host or cells: rat brain (crude mitochondrial suspension)
T3 sequence (P21396 1-526): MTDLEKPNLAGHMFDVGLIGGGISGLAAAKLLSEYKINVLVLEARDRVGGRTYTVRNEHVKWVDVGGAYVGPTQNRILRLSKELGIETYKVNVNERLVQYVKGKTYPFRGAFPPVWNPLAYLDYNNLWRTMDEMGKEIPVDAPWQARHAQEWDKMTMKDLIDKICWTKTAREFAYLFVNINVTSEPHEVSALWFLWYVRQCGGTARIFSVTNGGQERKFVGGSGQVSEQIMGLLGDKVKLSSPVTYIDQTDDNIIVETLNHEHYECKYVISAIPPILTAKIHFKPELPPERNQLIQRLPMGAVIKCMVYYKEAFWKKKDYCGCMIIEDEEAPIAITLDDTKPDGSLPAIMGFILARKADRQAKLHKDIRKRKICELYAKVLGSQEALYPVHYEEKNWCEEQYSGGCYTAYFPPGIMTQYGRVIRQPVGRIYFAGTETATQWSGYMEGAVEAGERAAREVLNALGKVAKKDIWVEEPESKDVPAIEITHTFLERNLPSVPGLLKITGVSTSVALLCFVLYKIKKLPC
Experimental: The effects of the compounds on rat MAO-A activity were studied following a previously reported methodology, using a crude rat brain mitochondrial suspension as a source of enzyme. Serotonin (100 µM) was used as the selective substrate for MAO-A. This compound and its metabolite were detected by HPLC with electrochemical detection. As an exploratory evaluation, the percentage of MAO-A inhibition in the presence of 100 µM of the different compounds was determined, with the idea of evaluating in detail those compounds showing an inhibitory activity in the range of 70–100%.

[1] = 2 nM [3H]-paroxetine, 1 h at 27 °C, mean ± SEM of three experiments, each in triplicate, read-out: Ki SERT
[2] = SERT, experimental values used for CoMFA/CoMSIA (Table S3), read-out: Exp. pKi (converted)

T1 sequence (P31645 whole entry): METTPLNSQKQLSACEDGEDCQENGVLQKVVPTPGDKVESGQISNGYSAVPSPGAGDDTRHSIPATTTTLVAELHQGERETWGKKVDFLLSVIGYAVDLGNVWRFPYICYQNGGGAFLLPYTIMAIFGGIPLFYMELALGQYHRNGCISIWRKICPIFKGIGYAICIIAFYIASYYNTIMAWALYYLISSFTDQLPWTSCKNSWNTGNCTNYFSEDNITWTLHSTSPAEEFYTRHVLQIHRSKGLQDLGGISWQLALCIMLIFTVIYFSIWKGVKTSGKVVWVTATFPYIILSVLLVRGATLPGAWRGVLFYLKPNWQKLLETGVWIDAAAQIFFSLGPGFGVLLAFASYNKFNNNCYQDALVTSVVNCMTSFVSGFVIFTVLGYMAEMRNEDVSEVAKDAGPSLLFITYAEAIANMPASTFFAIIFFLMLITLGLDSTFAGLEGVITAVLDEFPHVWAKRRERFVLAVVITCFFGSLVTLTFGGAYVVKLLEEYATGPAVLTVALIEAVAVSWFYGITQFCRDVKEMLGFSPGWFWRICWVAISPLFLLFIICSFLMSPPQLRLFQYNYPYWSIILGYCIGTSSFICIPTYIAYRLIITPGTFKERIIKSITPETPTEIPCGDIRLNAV
T2 sequence (P14416 whole entry): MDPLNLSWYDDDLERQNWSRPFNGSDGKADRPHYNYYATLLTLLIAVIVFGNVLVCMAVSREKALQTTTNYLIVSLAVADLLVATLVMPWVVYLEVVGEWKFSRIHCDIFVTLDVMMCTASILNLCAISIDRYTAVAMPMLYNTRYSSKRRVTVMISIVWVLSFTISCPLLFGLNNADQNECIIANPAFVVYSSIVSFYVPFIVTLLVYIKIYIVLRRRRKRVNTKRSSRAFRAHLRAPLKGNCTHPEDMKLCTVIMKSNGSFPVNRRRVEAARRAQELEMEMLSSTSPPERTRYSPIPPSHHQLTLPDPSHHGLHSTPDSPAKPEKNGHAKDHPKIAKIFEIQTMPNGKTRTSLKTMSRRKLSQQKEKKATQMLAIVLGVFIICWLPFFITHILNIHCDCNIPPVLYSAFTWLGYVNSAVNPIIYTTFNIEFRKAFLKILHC

Row | Ki (SERT; [1]) [nM] | melting point [°C] | Ki (D2 receptor) [nM] | inhibition at 100 µM (rat MAO-A) [%] | Ki (SERT; [2]) [nM] | D2/SERT ratio (D2 receptor; ratio of Ki at D2 receptor to Ki at SERT) | SMILES
1 | 307 ± 30.5 | 124.3 to 125.8 | 4840 ± 68 | 27 |  |  | O=C(CN1CCN(CCCc2c[nH]c3ccccc23)CC1)N1CCOc2ccccc21 [Compound 7a, 1-(2,3-Dihydro-benzo[b][1,4]oxazin-4-yl)-2-{4-[3-(1H-3-indolyl)-propyl]-1-piperazinyl} ethanamide]
2 | 181 ± 20 | 124 to 125.3 | 4740 ± 131 | 43 |  |  | O=C(CN1CCN(CCCc2c[nH]c3ccccc23)CC1)N1CCOc2cc(F)ccc21 [Compound 7b, 1-(7-Fluoro-2,3-dihydro-benzo[b][1,4]oxazin-4-yl)-2-{4-[3-(1H-3-indolyl)-propyl]-1-piperazinyl} ethanamide]
3 | 68.8 ± 1.02 | 123.8 to 125.1 | 2390 ± 163 | 40 |  |  | O=C(CN1CCN(CCCc2c[nH]c3ccccc23)CC1)N1CCOc2ccc(F)cc21 [Compound 7c, 1-(6-Fluoro-2,3-dihydro-benzo[b][1,4]oxazin-4-yl)-2-{4-[3-(1H-3-indolyl)-propyl]-1-piperazinyl} ethanamide]
4 | 81.4 ± 4.97 | 135.3 to 136.1 | 1260 ± 182 | 18 |  |  | O=C(CN1CCN(CCCc2c[nH]c3ccccc23)CC1)N1CCOc2ccc(Cl)cc21 [Compound 7d, 1-(6-Chloro-2,3-dihydro-benzo[b][1,4]oxazin-4-yl)-2-{4-[3-(1H-3-indolyl)-propyl]-1-piperazinyl} ethanamide]
5 | 36.6 ± 0.55 | 132.7 to 134.1 | 910 ± 263 | 38 |  |  | O=C(CN1CCN(CCCc2c[nH]c3ccccc23)CC1)N1CCOc2ccc(Br)cc21 [Compound 7e, 1-(6-Bromo-2,3-dihydro-benzo[b][1,4]oxazin-4-yl)-2-{4-[3-(1H-3-indolyl)-propyl]-1-piperazinyl} ethanamide]
6 | 412 ± 57.9 | 123.6 to 125.1 | 4410 ± 647 | 58 |  |  | COc1ccc2c(c1)N(C(=O)CN1CCN(CCCc3c[nH]c4ccccc34)CC1)CCO2 [Compound 7f, 1-(6-Methoxy-2,3-dihydro-benzo[b][1,4]oxazin-4-yl)-2-{4-[3-(1H-3-indolyl)-propyl]-1-piperazinyl} ethanamide]
7 | 9.63 ± 0.31 | 168.4 to 171.3 | 2320 ± 64 | 41 |  |  | O=C(CN1CCN(CCCc2c[nH]c3ccc(F)cc23)CC1)N1CCOc2ccccc21 [Compound 7g, 1-(2,3-Dihydro-benzo[b][1,4]oxazin-4-yl)-2-{4-[3-(5-fluoro-1H-3-indolyl)-propyl]-1-piperazinyl} ethanamide]
8 | 7.61 ± 0.02 | 168.1 to 169.9 | 2320 ± 163 | 0 |  |  | O=C(CN1CCN(CCCc2c[nH]c3ccc(F)cc23)CC1)N1CCOc2cc(F)ccc21 [Compound 7h, 1-(7-Fluoro-2,3-dihydro-benzo[b][1,4]oxazin-4-yl)-2-{4-[3-(5-fluoro-1H-3-indolyl)-propyl]-1-piperazinyl} ethanamide]
9 | 7.51 ± 0.12 | 166.8 to 168.1 | 1680 ± 79 | 0 |  |  | O=C(CN1CCN(CCCc2c[nH]c3ccc(F)cc23)CC1)N1CCOc2ccc(F)cc21 [Compound 7i, 1-(6-Fluoro-2,3-dihydro-benzo[b][1,4]oxazin-4-yl)-2-{4-[3-(5-fluoro-1H-3-indolyl)-propyl]-1-piperazinyl} ethanamide]
10 | 12.3 ± 2.31 | 120.5 to 122.8 | 902 ± 4 | 20 |  |  | O=C(CN1CCN(CCCc2c[nH]c3ccc(F)cc23)CC1)N1CCOc2ccc(Cl)cc21 [Compound 7j, 1-(6-Chloro-2,3-dihydro-benzo[b][1,4]oxazin-4-yl)-2-{4-[3-(5-fluoro-1H-3-indolyl)-propyl]-1-piperazinyl} ethanamide]
11 | 5.63 ± 0.82 | 102.8 to 103.9 | 1040 ± 232 | 20 | 5.62 |  | O=C(CN1CCN(CCCc2c[nH]c3ccc(F)cc23)CC1)N1CCOc2ccc(Br)cc21 [Compound 7k, 1-(6-Bromo-2,3-dihydro-benzo[b][1,4]oxazin-4-yl)-2-{4-[3-(5-fluoro-1H-3-indolyl)-propyl]-1-piperazinyl} ethanamide]
12 | 12.6 ± 1.52 | 94.5 to 97.3 | 3320 ± 256 | 52 |  |  | COc1ccc2c(c1)N(C(=O)CN1CCN(CCCc3c[nH]c4ccc(F)cc34)CC1)CCO2 [Compound 7l, 1-(6-Methoxy-2,3-dihydro-benzo[b][1,4]oxazin-4-yl)-2-{4-[3-(5-fluoro-1H-3-indolyl)-propyl]-1-piperazinyl} ethanamide]
13 | 50.2 ± 2.47 | 90.5 to 92.4 | 593 ± 62 | 30 | 50.1 |  | O=C(CN1CCN(CCCc2c[nH]c3ccc(Br)cc23)CC1)N1CCOc2ccccc21 [Compound 7m, 1-(2,3-Dihydro-benzo[b][1,4]oxazin-4-yl)-2-{4-[3-(5-bromo-1H-3-indolyl)-propyl]-1-piperazinyl} ethanamide]
14 | 84.4 | 96.1 to 98.1 | 307 ± 6 | 23 |  | 3.6 | O=C(CN1CCN(CCCc2c[nH]c3ccc(Br)cc23)CC1)N1CCOc2cc(F)ccc21 [Compound 7n, 1-(7-Fluoro-2,3-dihydro-benzo[b][1,4]oxazin-4-yl)-2-{4-[3-(5-bromo-1H-3-indolyl)-propyl]-1-piperazinyl} ethanamide]
15 |  | 97.2 to 98.8 | 1150 ± 227 | 26 | 34.9 |  | O=C(CN1CCN(CCCc2c[nH]c3ccc(Br)cc23)CC1)N1CCOc2ccc(F)cc21 [Compound 7o, 1-(6-Fluoro-2,3-dihydro-benzo[b][1,4]oxazin-4-yl)-2-{4-[3-(5-bromo-1H-3-indolyl)-propyl]-1-piperazinyl} ethanamide]
16 | 23.8 ± 0.46 | 92.2 to 93.9 | 3100 ± 42 | 42 |  |  | O=C(CN1CCN(CCCc2c[nH]c3ccc(F)cc23)CC1)Nc1cc(C(=O)NCCN2CCOCC2)ccc1F [Compound 13b, 4-Fluoro-3-(2-{4-[3-(5-fluor-1H-3-indolyl)-propyl]-1-piperazinyl}-acetylamino)-N-(2-morpholin-4-yl-ethyl) Benzamide]
17 | 6.83 ± 0.19 | 91.8 to 93.2 | 593 ± 30.2 | 28 |  |  | O=C(CN1CCN(CCCc2c[nH]c3ccc(F)cc23)CC1)Nc1ccc(F)c(C(=O)NCCN2CCOCC2)c1 [Compound 13c, 2-Fluoro-5-(2-{4-[3-(5-fluor-1H-3-indolyl)-propyl]-1-piperazinyl}-acetylamino)-N-(2-morpholin-4-yl-ethyl) Benzamide]
18 | 223 ± 16.4 | 92.1 to 93.8 | 5619 ± 31 | 39 |  |  | O=C(CN1CCN(CCCc2c[nH]c3ccc(Br)cc23)CC1)Nc1cc(F)ccc1C(=O)NCCN1CCOCC1 [Compound 13e, 4-Fluoro-2-(2-{4-[3-(5-bromo-1H-3-indolyl)-propyl]-1-piperazinyl}-acetylamino)-N-(2-morpholin-4-yl-ethyl) Benzamide]
19 | 58.8 ± 1.14 | 85.2 to 86.8 | 1830 ± 33 | 39 |  |  | O=C(CN1CCN(CCCc2c[nH]c3ccc(Br)cc23)CC1)Nc1cc(C(=O)NCCN2CCOCC2)ccc1F [Compound 13f, 4-Fluoro-3-(2-{4-[3-(5-bromo-1H-3-indolyl)-propyl]-1-piperazinyl}-acetylamino)-N-(2-morpholin-4-yl-ethyl) Benzamide]
20 | 12.6 ± 0.42 | 73.2 to 74.5 | 765 ± 16 | 16 |  |  | O=C(CN1CCN(CCCc2c[nH]c3ccc(Br)cc23)CC1)Nc1ccc(F)c(C(=O)NCCN2CCOCC2)c1 [Compound 13g, 2-Fluoro-5-(2-{4-[3-(5-bromo-1H-3-indolyl)-propyl]-1-piperazinyl}-acetylamino)-N-(2-morpholin-4-yl-ethyl) Benzamide]
